The values that follow come from ChEMBL document CHEMBL3352226, “Synthesis of novel derivatives of 4-methylbenzimidazole and evaluation of their biological activities” (Eur J Med Chem, 2014).

The nature of data set [1]: Antiglycation activity using BSA assessed as inhibition of AGE formation incubated at 37 degC for 9 days by fluorescence assay. In kind it is physicochemical.
Data set [2] is described as follows: Antioxidant activity assessed as superoxide anion radical scavenging activity by nitroblue tetrazolium method. Type of data set: physicochemical.
Data set [3] can be described thus: Antioxidant activity assessed as DPPH free radical scavenging activity incubated at 37 degC for 30 mins by microtiter plate reader based method. Type of data set: physicochemical. In general terms: Loss of DPPH colour is used to gauge radical scavenging.
Data set [4] in a line: Toxicity against human THP1 cells assessed as reduction in cell viability after 48 hrs by trypan blue dye exclusion method. Type of data set: cell-based. The following applies: thp-1, 48 h.
Data set [5] relates to Leishmania major. The data set can be described thus: Antileishmanial activity against Leishmania major JISH118 promastigotes infected in human THP1 cells by Giemsa staining method. Type of data set: functional, organism-based, THP-1.
Data set [6] in a line: Antiglycation activity using BSA assessed as inhibition of AGE formation incubated at 37 degC for 9 days by fluorescence assay relative to untreated control. In kind it is physicochemical. The following applies: cattle, 216 h.
The mark [7] stands for this setting: Leishmania major, JISH118, THP-1, read-out: IC50.

As to `COc1cccc(/C=N/NC(=O)c2ccc(-c3nc4cccc(C)c4[nH]3)cc2)c1`, the IC50 result in data set [1] is “Not Active”; in data set [2] it was 345 µM; in data set [3] it was 145 µM; in data set [5] (thp-1), “Not Active”. The Activity result in data set [4] is given as “Non-toxic”. The “inhibition (INH)” value in data set [6] is under 50%.
Regarding `COc1ccc(/C=N/NC(=O)c2ccc(-c3nc4cccc(C)c4[nH]3)cc2)cc1OC`, the IC50 result was “Not Active” in data set [1], 330 µM in data set [2], 120 µM in data set [3] and “Not Active” in data set [5] (thp-1). Moreover, the Activity entry in data set [4] is “Non-toxic”. In data set [6], the “inhibition (INH)” value is reported as under 50%.
For `Cc1cccc(/C=N/NC(=O)c2ccc(-c3nc4cccc(C)c4[nH]3)cc2)c1`, the IC50 entry was “Not Active” in data set [1], 345 µM in data set [2], 150 µM in data set [3] and “Not Active” in data set [5] (thp-1). Also, the Activity entry in data set [4] is “Non-toxic”. In addition, the “inhibition (INH)” value in data set [6] was under 50%.
For `Cc1cccc2nc(-c3ccc(C(=O)N/N=C/c4ccc(O)cc4)cc3)[nH]c12`, the IC50 is 150 µM in data set [1] (read-out: IC50), 101 µM in data set [2], 29 µM in data set [3] and “Not Active” in data set [5] (thp-1). In addition, the Activity entry in data set [4] is listed as “Non-toxic”.
The like results for `COC(=O)c1ccc(/C=N/NC(=O)c2ccc(-c3nc4cccc(C)c4[nH]3)cc2)cc1` were, in that order, 501 µM, 322 µM, 160 µM, “Not Active” and “Non-toxic”.
For `Cc1cccc2nc(-c3ccc(C(=O)N/N=C/c4ccccn4)cc3)[nH]c12`, the IC50 result in data set [1] is “Not Active”; in data set [2], 350 µM; in data set [3] it was 94.3 µM; in data set [5] (thp-1), “Not Active”. Also, the Activity entry in data set [4] was “Non-toxic”. The “inhibition (INH)” value in data set [6] is on record as under 50%.
On to `COc1ccc(/C=N/NC(=O)c2ccc(-c3nc4cccc(C)c4[nH]3)cc2)c(I)c1O`, for which the IC50 in data set [1] (read-out: IC50) was 405 µM; in data set [2] it was 210 µM; in data set [3] it was 40.1 µM; in data set [5] (thp-1), “Not Active”. The Activity entry in data set [4] is “Non-toxic”.
As to `Cc1cccc2nc(-c3ccc(C(=O)N/N=C/c4ccccc4O)cc3)[nH]c12`, the IC50 was 380 µM in data set [1] (read-out: IC50), 209 µM in data set [2], 54.1 µM in data set [3] and “Not Active” in data set [5] (thp-1). Besides, the Activity result in data set [4] is recorded as “Non-toxic”.
As to `COc1ccc(/C=N/NC(=O)c2ccc(-c3nc4cccc(C)c4[nH]3)cc2)cc1O`, the IC50 in data set [1] (read-out: IC50) is 360 µM; in data set [2] it was 222 µM; in data set [3] it was 49.1 µM; in data set [5] (thp-1), “Not Active”. In data set [4], the Activity entry was “Non-toxic”.
For the compound `Cc1cccc2nc(-c3ccc(C(=O)N/N=C/c4cc(O)cc(O)c4)cc3)[nH]c12`, the IC50 was 195 µM in data set [1] (read-out: IC50), 90 µM in data set [2], 17.3 µM in data set [3] and “Not Active” in data set [5] (thp-1). The Activity entry in data set [4] was “Non-toxic”.
`C[C@@H]1O[C@@H](OC[C@H]2O[C@@H](Oc3c(-c4ccc(O)c(O)c4)oc4cc(O)cc(O)c4c3=O)[C@H](O)[C@@H](O)[C@@H]2O)[C@H](O)[C@H](O)[C@H]1O` [RUTIN]: the IC50 in data set [1] (read-out: IC50) came to 294 µM.
For `Cc1cccc2nc(-c3ccc(C(=O)N/N=C/c4ccncc4)cc3)[nH]c12`, the IC50 entry in data set [1] was “Not Active”; in data set [2], 340 µM; in data set [3], 88.4 µM; in data set [5] (thp-1), “Not Active”. For the same compound, in data set [4], the Activity entry is reported as “Non-toxic”. Besides, the “inhibition (INH)” value in data set [6] is on record as under 50%.
As for `N=C(N)c1ccc(OCCCCCOc2ccc(C(=N)N)cc2)cc1` [PENTAMIDINE], the IC50 in data set [5] (setting [7]) was found to be 7.02 µM.
As for `Cc1cccc2nc(-c3ccc(C(=O)N/N=C/c4ccc(F)cc4)cc3)[nH]c12`, the IC50 result in data set [1] is “Not Active”; in data set [2], 320 µM; in data set [3], 90.2 µM; in data set [5] (thp-1) it was “Not Active”. Moreover, the Activity entry in data set [4] is given as “Non-toxic”. In data set [6], the “inhibition (INH)” value is reported as under 50%.
Take `Cc1cccc2nc(-c3ccc(C(=O)N/N=C/c4ccc(O)c(Br)c4)cc3)[nH]c12`: the IC50 in data set [1] (read-out: IC50) is 350 µM; in data set [2], 190 µM; in data set [3] it was 25.2 µM; in data set [5] (thp-1), “Not Active”. Further, the Activity entry in data set [4] is on record as “Non-toxic”.
For the compound `Cc1cccc2nc(-c3ccc(C(=O)N/N=C/c4ccc(Cl)cc4)cc3)[nH]c12`, the IC50 entry is “Not Active” in data set [1], 360 µM in data set [2], 120 µM in data set [3] and “Not Active” in data set [5] (thp-1). The Activity entry in data set [4] is reported as “Non-toxic”. The “inhibition (INH)” value in data set [6] is reported as under 50%.
Regarding `Cc1ccccc1/C=N/NC(=O)c1ccc(-c2nc3cccc(C)c3[nH]2)cc1`, the IC50 entry was “Not Active” in data set [1], 340 µM in data set [2], 158 µM in data set [3] and “Not Active” in data set [5] (thp-1). Moreover, the Activity entry in data set [4] is “Non-toxic”. For the same compound, the “inhibition (INH)” value in data set [6] is under 50%.
As for `Cc1cccc2nc(-c3ccc(C(=O)N/N=C/c4cccnc4)cc3)[nH]c12`, the IC50 entry in data set [1] was “Not Active”; in data set [2], 310 µM; in data set [3], 105 µM; in data set [5] (thp-1), “Not Active”. Besides, the Activity result in data set [4] is listed as “Non-toxic”. Further, the “inhibition (INH)” value in data set [6] is under 50%.
Take `Cc1cccc2nc(-c3ccc(C(=O)N/N=C/c4ccc(O)cc4O)cc3)[nH]c12`: the IC50 is 140 µM in data set [1] (read-out: IC50), 92.1 µM in data set [2], 27.4 µM in data set [3] and “Not Active” in data set [5] (thp-1). For the same compound, in data set [4], the Activity entry was “Non-toxic”.
The corresponding values for `COc1ccc(/C=N/NC(=O)c2ccc(-c3nc4cccc(C)c4[nH]3)cc2)c(O)c1` are 340 µM, 202 µM, 47.5 µM, “Not Active” and “Non-toxic”.
For `Cc1cccc2nc(-c3ccc(C(=O)N/N=C/c4ccco4)cc3)[nH]c12`, the IC50 entry is “Not Active” in data set [1], 310 µM in data set [2], 180 µM in data set [3] and “Not Active” in data set [5] (thp-1). Besides, the Activity entry in data set [4] is on record as “Non-toxic”. Besides, the “inhibition (INH)” value in data set [6] is recorded as under 50%.
As to `Cc1cccc2nc(-c3ccc(C(=O)N/N=C/c4ccc([N+](=O)[O-])cc4)cc3)[nH]c12`, the IC50 is 450 µM in data set [1] (read-out: IC50), 312 µM in data set [2], 138 µM in data set [3] and “Not Active” in data set [5] (thp-1). The Activity result in data set [4] was “Non-toxic”.
`CCCOC(=O)c1cc(O)c(O)c(O)c1` [PROPYL GALLATE]: the IC50 in data set [2] is 106 µM; in data set [3], 30.3 µM.
Take `COc1ccc(O)c(/C=N/NC(=O)c2ccc(-c3nc4cccc(C)c4[nH]3)cc2)c1`: the IC50 is 400 µM in data set [1] (read-out: IC50), 215 µM in data set [2], 74.2 µM in data set [3] and “Not Active” in data set [5] (thp-1). Also, in data set [4], the Activity entry is given as “Non-toxic”.
The like results for `Cc1cccc2nc(-c3ccc(C(=O)N/N=C/c4ccc(O)c(O)c4)cc3)[nH]c12` were, in that order, 190 µM, 81 µM, 14.2 µM, “Not Active” and “Non-toxic”.
As to `COc1ccc(/C=N/NC(=O)c2ccc(-c3nc4cccc(C)c4[nH]3)cc2)cc1`, the IC50 entry in data set [1] is “Not Active”; in data set [2], 340 µM; in data set [3], 140 µM; in data set [5] (thp-1), “Not Active”. The Activity entry in data set [4] is given as “Non-toxic”. The “inhibition (INH)” value in data set [6] is under 50%.
Consider `Cc1cccc2nc(-c3ccc(C(=O)N/N=C/c4cc(O)ccc4O)cc3)[nH]c12`, for which the IC50 in data set [1] (read-out: IC50) was 206 µM; in data set [2], 86.1 µM; in data set [3], 18.5 µM; in data set [5] (thp-1), “Not Active”. Also, in data set [4], the Activity entry is given as “Non-toxic”.
Turning to `Cc1cccc2nc(-c3ccc(C(=O)N/N=C/c4cccs4)cc3)[nH]c12`, the IC50 entry in data set [1] was “Not Active”; in data set [2] it was 320 µM; in data set [3], 110 µM; in data set [5] (thp-1), “Not Active”. Besides, the Activity result in data set [4] is on record as “Non-toxic”. The “inhibition (INH)” value in data set [6] is given as under 50%.
As for `Cc1cccc2nc(-c3ccc(C(=O)N/N=C/c4cccc(O)c4)cc3)[nH]c12`, the IC50 was 280 µM in data set [1] (read-out: IC50), 212 µM in data set [2], 60.2 µM in data set [3] and “Not Active” in data set [5] (thp-1). For the same compound, in data set [4], the Activity entry is “Non-toxic”.
Turning to `Cc1cccc2nc(-c3ccc(C(=O)N/N=C/c4cccc(O)c4O)cc3)[nH]c12`, the IC50 in data set [1] (read-out: IC50) is 220 µM; in data set [2], 82 µM; in data set [3], 12.1 µM; in data set [5] (setting [7]), 37.8 µM. In data set [4], the Activity entry was “Non-toxic”.
As to `COc1cc(/C=N/NC(=O)c2ccc(-c3nc4cccc(C)c4[nH]3)cc2)ccc1O`, the IC50 is 271 µM in data set [1] (read-out: IC50), 104 µM in data set [2], 26.2 µM in data set [3] and “Not Active” in data set [5] (thp-1). The Activity entry in data set [4] was “Non-toxic”.

As usually defined, the IC50 is the concentration needed to halve the response being measured.
